Several values for one entry are separate records, joined by “and”; a condition that tells them apart may be missing. Equal values may be shown once. Activity calls are given as the source filed them. The rule behind the calls is not given here.
Experiments:
[1] = target: T1, Protein cereblon/Cyclin-dependent kinase 12 (Homo sapiens) (UniProt Q9NYV4+Q96SW2); experiment: PROTAC activity at CRBN/CDK12 in human Jurkat cells assessed as induction of CDK12 degradation up to 500 nM incubated for 6 hrs by western blot analysis; assay type: cell-based; details: dose nM <=500, time 6.0 hrs
[2] = target: T1, Protein cereblon/Cyclin-dependent kinase 12 (Homo sapiens); experiment: PROTAC activity at CRBN/CDK12 in human Jurkat cells assessed as induction of CDK12 degradation at 100 nM incubated for 6 hrs by western blot analysis; assay type: cell-based
[3] = AUClast in C57BL/6 mouse at 2 mg/kg, iv measured up to 8 hrs post-dosing; assay type: ADME, organism-based; parameters: route intravenous, dose 2 mg/kg, time <=8; details: in vivo
[4] = Half life in C57BL/6 mouse at 2 mg/kg, iv measured up to 8 hrs post-dosing; assay type: ADME, organism-based; details: in vivo
[5] = Cmax in C57BL/6 mouse at 2 mg/kg, iv measured up to 8 hrs post-dosing; assay type: ADME, organism-based; parameters: route intravenous, dose 2 mg/kg, time <=8; details: in vivo
[6] = AUC (extrapolated) in C57BL/6 mouse at 2 mg/kg, iv measured up to 8 hrs post-dosing; assay type: ADME, organism-based; details: in vivo
[7] = AUC(infinity) in C57BL/6 mouse at 2 mg/kg, iv measured up to 8 hrs post-dosing; assay type: ADME, organism-based; parameters: route intravenous, dose 2 mg/kg, time <=8; details: in vivo

T1 sequence (Q96SW2 whole entry, looked up): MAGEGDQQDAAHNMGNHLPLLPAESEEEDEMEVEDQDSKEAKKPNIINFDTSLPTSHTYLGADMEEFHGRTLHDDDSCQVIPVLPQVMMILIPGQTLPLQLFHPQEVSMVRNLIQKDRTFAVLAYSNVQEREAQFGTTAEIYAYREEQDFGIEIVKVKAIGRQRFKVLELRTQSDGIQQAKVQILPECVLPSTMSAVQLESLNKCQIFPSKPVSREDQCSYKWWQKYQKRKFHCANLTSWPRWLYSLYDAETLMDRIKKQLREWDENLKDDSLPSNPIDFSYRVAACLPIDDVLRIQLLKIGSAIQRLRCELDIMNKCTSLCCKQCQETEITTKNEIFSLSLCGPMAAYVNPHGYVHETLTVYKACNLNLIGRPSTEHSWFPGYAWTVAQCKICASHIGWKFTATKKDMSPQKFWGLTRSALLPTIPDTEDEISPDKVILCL
T1 sequence (Q9NYV4 whole entry, looked up): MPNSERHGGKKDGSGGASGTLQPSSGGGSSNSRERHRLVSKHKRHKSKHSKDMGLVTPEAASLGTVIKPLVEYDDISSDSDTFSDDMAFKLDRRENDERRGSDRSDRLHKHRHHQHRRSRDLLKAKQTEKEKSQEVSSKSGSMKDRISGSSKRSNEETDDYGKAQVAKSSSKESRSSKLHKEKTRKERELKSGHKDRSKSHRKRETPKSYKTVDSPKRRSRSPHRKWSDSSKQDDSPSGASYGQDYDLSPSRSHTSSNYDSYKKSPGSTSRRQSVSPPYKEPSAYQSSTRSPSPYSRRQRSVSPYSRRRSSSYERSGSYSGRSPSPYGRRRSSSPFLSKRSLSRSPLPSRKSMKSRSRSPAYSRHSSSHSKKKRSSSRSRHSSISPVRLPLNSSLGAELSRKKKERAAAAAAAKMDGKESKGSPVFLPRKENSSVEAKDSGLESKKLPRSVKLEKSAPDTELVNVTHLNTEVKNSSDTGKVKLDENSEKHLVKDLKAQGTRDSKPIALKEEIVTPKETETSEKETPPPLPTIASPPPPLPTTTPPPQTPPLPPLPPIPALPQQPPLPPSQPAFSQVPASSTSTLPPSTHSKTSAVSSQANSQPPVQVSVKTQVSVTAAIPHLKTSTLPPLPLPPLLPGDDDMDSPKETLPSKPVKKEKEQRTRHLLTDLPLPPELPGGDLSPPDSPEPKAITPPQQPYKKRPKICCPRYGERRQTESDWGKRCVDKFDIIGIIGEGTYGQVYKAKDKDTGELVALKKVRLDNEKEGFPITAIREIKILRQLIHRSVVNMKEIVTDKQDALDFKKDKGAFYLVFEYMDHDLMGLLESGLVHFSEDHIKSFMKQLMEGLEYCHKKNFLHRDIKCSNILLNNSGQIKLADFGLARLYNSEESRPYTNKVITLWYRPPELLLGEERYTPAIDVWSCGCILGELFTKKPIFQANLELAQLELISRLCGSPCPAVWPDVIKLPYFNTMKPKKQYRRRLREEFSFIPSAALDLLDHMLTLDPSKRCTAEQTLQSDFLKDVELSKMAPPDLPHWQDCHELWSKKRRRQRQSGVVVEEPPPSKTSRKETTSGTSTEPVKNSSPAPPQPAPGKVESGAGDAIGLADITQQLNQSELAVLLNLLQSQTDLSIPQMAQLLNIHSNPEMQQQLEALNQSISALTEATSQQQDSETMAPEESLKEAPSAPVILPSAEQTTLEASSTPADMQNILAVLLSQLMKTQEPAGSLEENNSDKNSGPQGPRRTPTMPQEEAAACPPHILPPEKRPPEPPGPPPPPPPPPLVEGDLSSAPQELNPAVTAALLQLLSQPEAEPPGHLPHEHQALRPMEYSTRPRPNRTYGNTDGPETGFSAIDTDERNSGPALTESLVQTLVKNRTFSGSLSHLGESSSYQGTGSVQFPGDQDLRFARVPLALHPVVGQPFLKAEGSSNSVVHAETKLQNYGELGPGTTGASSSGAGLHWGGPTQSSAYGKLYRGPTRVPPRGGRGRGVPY

Compound	Activity [1]	Activity [2] [%]	other results
O=C(COc1cccc2c1C(=O)N(C1CCC(=O)NC1=O)C2=O)NCCOCCOCCC(=O)N1CCC[C@@H](Nc2ncc(Cl)c(-c3c[nH]c4ccccc34)n2)C1 (some centres not stated)	inactive	–	–
O=C(COc1cccc2c1C(=O)N(C1CCC(=O)NC1=O)C2=O)NCCCCCCCN1CCN(c2cccc(C(=O)N3CCC[C@@H](Nc4ncc(Cl)c(-c5c[nH]c6ccccc56)n4)C3)c2)CC1 (some centres not stated)	inactive	–	–
O=C(COc1cccc2c1C(=O)N(C1CCC(=O)NC1=O)C2=O)NCCCCCCCN1CCC(C(=O)N2CCC[C@@H](Nc3ncc(Cl)c(-c4c[nH]c5ccccc45)n3)C2)CC1 (some centres not stated)	–	80	–
O=C(COc1cccc2c1C(=O)N(C1CCC(=O)NC1=O)C2=O)NCCOCCOCCN1CCC[C@@H](Nc2ncc(Cl)c(-c3c[nH]c4ccccc34)n2)C1 (some centres not stated)	inactive	–	–
O=C(COc1cccc2c1C(=O)N(C1CCC(=O)NC1=O)C2=O)NCCCN1CCN(c2ccc(C(=O)N3CCC[C@@H](Nc4ncc(Cl)c(-c5c[nH]c6ccccc56)n4)C3)cc2)CC1 (some centres not stated)	–	60	–
Cc1ncsc1-c1ccc([C@H](C)NC(=O)[C@@H]2C[C@@H](O)CN2C(=O)[C@@H](NC(=O)CCOCCOCCOCCN2CCC[C@@H](Nc3ncc(Cl)c(Nc4ccccc4S(=O)(=O)C(C)C)n3)C2)C(C)(C)C)cc1	–	90	–
O=C(COc1cccc2c1C(=O)N(C1CCC(=O)NC1=O)C2=O)NCCCCCC(=O)N1CCC[C@@H](Nc2ncc(Cl)c(-c3c[nH]c4ccccc34)n2)C1 (some centres not stated)	inactive	–	–
O=C(COc1cccc2c1C(=O)N(C1CCC(=O)NC1=O)C2=O)NCCCCCCCN1CCC[C@@H](Nc2ncc(Cl)c(-c3c[nH]c4ccccc34)n2)C1 (some centres not stated)	–	90	–
CC(C)S(=O)(=O)c1ccccc1Nc1nc(N[C@@H]2CCCN(CCCCCCCNC(=O)COc3cccc4c3C(=O)N(C3CCC(=O)NC3=O)C4=O)C2)ncc1Cl (some centres not stated)	–	90	–
O=C(COc1cccc2c1C(=O)N(C1CCC(=O)NC1=O)C2=O)NCCCCN1CCC[C@@H](Nc2ncc(Cl)c(-c3c[nH]c4ccccc34)n2)C1 (some centres not stated)	inactive	–	–
O=C(COc1cccc2c1C(=O)N(C1CCC(=O)NC1=O)C2=O)NCCOCCOCCOCCN1CCC[C@@H](Nc2ncc(Cl)c(-c3c[nH]c4ccccc34)n2)C1 (some centres not stated)	–	80	–
Cc1ncsc1-c1ccc([C@H](C)NC(=O)[C@@H]2C[C@@H](O)CN2C(=O)[C@@H](NC(=O)CCCCCCCCCCN2CCC[C@@H](Nc3ncc(Cl)c(Nc4ccccc4S(=O)(=O)C(C)C)n3)C2)C(C)(C)C)cc1	–	90	AUC(0-t) at 8 h [3]: 5720 ng·h/mL and 5.61 µM·h; half-life [4]: 2.21 h; Cmax [5]: 4570 ng/mL and 4.49 µM; %AUCextra [6]: 6.27%; AUC(0-inf) [7]: 6140 ng·h/mL
O=C(COc1cccc2c1C(=O)N(C1CCC(=O)NC1=O)C2=O)NCCCCCN1CCN(c2ccc(C(=O)N3CCC[C@@H](Nc4ncc(Cl)c(-c5c[nH]c6ccccc56)n4)C3)cc2)CC1 (some centres not stated)	–	80	–
O=C(COc1cccc2c1C(=O)N(C1CCC(=O)NC1=O)C2=O)NCCCCCCN1CCC(C(=O)N2CCC[C@@H](Nc3ncc(Cl)c(-c4c[nH]c5ccccc45)n3)C2)CC1 (some centres not stated)	–	80	–
Cc1ncsc1-c1ccc([C@H](C)NC(=O)[C@H]2C[C@H](O)CN2C(=O)[C@@H](NC(=O)CCCCCCCCCCN2CCC[C@@H](Nc3ncc(Cl)c(Nc4ccccc4S(=O)(=O)C(C)C)n3)C2)C(C)(C)C)cc1	inactive	–	–
O=C(COc1cccc2c1C(=O)N(C1CCC(=O)NC1=O)C2=O)NCCCCCN1CCC[C@@H](Nc2ncc(Cl)c(-c3c[nH]c4ccccc34)n2)C1 (some centres not stated)	inactive	–	–
O=C(COc1cccc2c1C(=O)N(C1CCC(=O)NC1=O)C2=O)NCCCCCCN1CCC[C@@H](Nc2ncc(Cl)c(-c3c[nH]c4ccccc34)n2)C1 (some centres not stated)	–	80	–

— ChEMBL document CHEMBL4806970, “Degraders of cyclin-dependent kinase 12 (cdk12) and uses thereof” (2020)
